Like-named read-outs stand apart in the source and are kept apart here. Blank lines part the entries; values can stand above or below the compound they belong to.
Columns and labels:
c-Myc = details: MM.1S cells; background, literature; cited from earlier work
BRD4 [1] = molecular target: T1, BRD4 (Homo sapiens, UniProt O60885); assay: Differential Scanning Fluorimetry (DSF), increased stability of BRD4 upon ligand binding; details: for BRD4 DSF (ΔTm): Table 3; for ΔTm at 4 µM: 100 μM protein, 4 μM compound and 2% DMSO
Method: DSF=Differential Scanning Fluorimetry; provides a measure of the increased stability of BRD4 upon ligand binding The DSF experiment was run at 100 μM protein, 4 μM compound and 2% DMSO.

UKE1 cells = assay: Growth inhibition of UKE1 cells; format: cell-based
MM1.S cells = assay: Antiproliferative activity in MM1.S cells (sensitive for BRD4 inhibition); format: cell-based; details: Homo sapiens; for GI50 / IC50: MM1.S; for GI50: Table 3, read-out: GI50 (MM1S); for EC50: MM1.S cells (sensitive for BRD4 inhibition)
Method: Cellular activity of promising compounds is assessed using MM.1S and MV4-11 AML cells using c-Myc levels as biomarker (6-12 hr treatment) and antiproliferative activity (48-72 hr treatment) as described (Ciceri et al., Dual kinase-bromodomain inhibitors for rationally designed polypharmacology. Nat Chem Biol 2014).

MV4-11 AML cells = details: background, literature; read-out: IC50, proliferation of MV4-11 AML cells; cited from earlier work
Mouse microsome = format: in vitro ADME; details: Table 1
JAK2 = JAK2 (Homo sapiens, UniProt O60674); assay: JAK2 inhibition (IC50); format: biochemical
BRD4 [2] = molecular target: T1, BRD4; assay: BRD4 inhibition (IC50); format: binding; parameters: BRD4-1
[3] = Table 1, read-out: GI50 (UKE1 cells)
[4] = Table 2, read-out: GI50 (UKE1 cells)
[5] = Table 1, estimated, read-out: Estimated BRD4-1 IC50 (BRD4)

Chain of JAK2 (O60674 whole entry): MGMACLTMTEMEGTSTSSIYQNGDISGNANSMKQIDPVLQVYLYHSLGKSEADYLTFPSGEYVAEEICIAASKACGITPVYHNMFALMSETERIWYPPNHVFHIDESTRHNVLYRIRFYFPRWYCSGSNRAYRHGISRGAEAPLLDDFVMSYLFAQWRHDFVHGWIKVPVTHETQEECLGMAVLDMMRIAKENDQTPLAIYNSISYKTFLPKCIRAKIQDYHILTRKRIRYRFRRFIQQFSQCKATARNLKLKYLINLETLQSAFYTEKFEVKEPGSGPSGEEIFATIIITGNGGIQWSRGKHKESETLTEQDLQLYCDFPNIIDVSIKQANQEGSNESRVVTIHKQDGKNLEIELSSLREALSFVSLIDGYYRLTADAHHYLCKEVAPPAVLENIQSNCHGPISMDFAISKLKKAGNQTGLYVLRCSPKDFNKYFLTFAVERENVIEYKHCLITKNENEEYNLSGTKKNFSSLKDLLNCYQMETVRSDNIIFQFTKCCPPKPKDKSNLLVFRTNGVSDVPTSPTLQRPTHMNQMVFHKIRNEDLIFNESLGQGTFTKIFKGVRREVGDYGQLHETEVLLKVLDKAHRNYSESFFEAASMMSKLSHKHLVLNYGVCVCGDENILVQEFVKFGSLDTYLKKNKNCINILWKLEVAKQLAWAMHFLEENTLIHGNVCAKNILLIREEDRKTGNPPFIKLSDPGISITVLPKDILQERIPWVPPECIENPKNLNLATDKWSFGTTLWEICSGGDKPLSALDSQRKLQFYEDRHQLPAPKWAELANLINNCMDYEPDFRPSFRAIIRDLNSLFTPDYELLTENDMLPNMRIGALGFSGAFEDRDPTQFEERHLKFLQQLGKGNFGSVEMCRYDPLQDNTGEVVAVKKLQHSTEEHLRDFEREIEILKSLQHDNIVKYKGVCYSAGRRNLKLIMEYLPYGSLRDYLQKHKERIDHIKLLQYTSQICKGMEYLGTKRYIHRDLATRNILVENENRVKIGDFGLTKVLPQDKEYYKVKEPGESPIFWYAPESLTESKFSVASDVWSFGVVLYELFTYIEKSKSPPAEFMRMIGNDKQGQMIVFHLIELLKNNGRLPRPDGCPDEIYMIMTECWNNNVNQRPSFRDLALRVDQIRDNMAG

Compound: CC[C@@H]1C(=O)N(C)c2cnc(Nc3ccc(C(=O)NC4CCN(C)CC4)cc3OC)nc2N1C1CCCC1 [BI2536]
downregulation of c-Myc (c-Myc): strong downregulation

BRD4 DSF (ΔTm) (BRD4 [1]): 2.5 °C
Compound: Cc1cnc(Nc2ccc(C3CCN(C)CC3)cc2)cc1Nc1cccc(CS(=O)(=O)C(C)(C)C)c1 [SY3-032, N^4-(3-((tert-Butylsulfonyl)methyl)phenyl)-5-methyl-N^2-(4-(1-methylpiperidin-4-yl)phenyl)pyridine-2,4-diamine]

GI50 (MM1.S cells): 2.3 µM
BRD4 DSF (ΔTm) (BRD4 [1]): 7.0 °C
Compound: Cc1cnc(Nc2cc(F)c(C3CCN(C)CC3)cn2)nc1Nc1ccc2c(c1)C(S(=O)(=O)C(C)(C)C)CC2 (stereo not shown) [SR5-158, N^4-(3-(tert-Butylsulfonyl)-2,3-dihydro-1H-inden-5-yl)-N^2-(4-fluoro-5-(1-methylpiperidin-4-yl)pyridin-2-yl)-5-methylpyrimidine-2,4-diamine]
GI50 (UKE1 cells; Table 3, read-out: GI50 (UKE1)): 3.64 µM

Compound: Cc1cnc(Nc2ccc(OCCN3CCCC3)cc2)nc1Nc1cccc(S(=O)(=O)NC(C)(C)C)c1 [TG101348]
downregulation of c-Myc (c-Myc): strong downregulation
IC50 (MV4-11 AML cells): 0.079 µM

GI50 (MM1.S cells): 0.85 µM
BRD4 DSF (ΔTm) (BRD4 [1]): 8.7 °C
Compound: Cc1cnc(Nc2ccc(C3CCN(C)CC3)c(F)c2)nc1Nc1ccc2c(c1)C(S(=O)(=O)C(C)(C)C)CC2 (stereo not shown) [SR5-156, N^4-(3-(tert-Butylsulfonyl)-2,3-dihydro-1H-inden-5-yl)-N^2-(3-fluoro-4-(1-methylpiperidin-4-yl)phenyl)-5-methylpyrimidine-2,4-diamine]
GI50 (UKE1 cells; Table 3, read-out: GI50 (UKE1)): 1.44 µM

Mouse microsome (Mouse microsome): 22%
IC50 (JAK2; Table 3, read-out: JAK2 (IC50)): 0.0042 µM
IC50 (MM1.S cells; Table 1): 0.32 µM
GI50 (MM1.S cells): 0.32 µM
ΔTm at 4 µM (BRD4 [1]; Table 1): 9.8 °C
BRD4 DSF (ΔTm) (BRD4 [1]): 9.8 °C
IC50 (BRD4 [2]; Table 3, read-out: BRD4 (IC50)): 0.7 µM
Compound: Cc1cnc(Nc2ccc(C3CCN(C)CC3)c(F)c2)nc1Nc1ccc(Cl)c(CS(=O)(=O)C(C)(C)C)c1 [SR3-169, N^4-(3-((tert-Butylsulfonyl)methyl)-4-chlorophenyl)-N^2-(3-fluoro-4-(1-methylpiperidin-4-yl)phenyl)-5-methylpyrimidine-2,4-diamine]
GI50 (UKE1 cells; [3]): 0.4 µM
GI50 (UKE1 cells; Table 3, read-out: GI50 (UKE1)): 0.4 µM

Compound: Cc1cnc(Nc2ccc(N3CCN(C)CC3)cc2)nc1Nc1cccc(S(=O)(=O)NC(C)(C)C)c1 [TG101209]
downregulation of c-Myc (c-Myc): strong downregulation

EC50 (MM1.S cells; Table 2): 2.83 µM
ΔTm at 4 µM (BRD4 [1]; Table 2): 6.6 °C
Compound: Cc1cnc(Nc2cc(F)c(N3CCN(C)CC3)c(F)c2)cc1Nc1ccc(Cl)c(NS(=O)(=O)C(C)(C)C)c1
GI50 (UKE1 cells; [4]): 5.7 µM

IC50 (JAK2; Table 1, read-out: IC50 (JAK2)): 0.009 µM
IC50 (JAK2; Table 3, read-out: JAK2 (IC50)): 0.008 µM
GI50 (MM1.S cells): 0.71 µM
EC50 (MM1.S cells; Table 1): 0.71 µM
ΔTm at 4 µM (BRD4 [1]; Table 1): 8.4 °C
BRD4 DSF (ΔTm) (BRD4 [1]): 8.4 °C
IC50 (BRD4 [2]; [5]): 5.61 µM
IC50 (BRD4 [2]; Table 3, read-out: BRD4 (IC50)): 5.6 µM
Compound: Cc1cnc(Nc2ccc(N3CCN(C)CC3)c(F)c2)nc1Nc1cccc(CS(=O)(=O)C(C)(C)C)c1 [SR3-159, N^4-(3-((tert-Butylsulfonyl)methyl)phenyl)-N^2-(3-fluoro-4-(4-methylpiperazin-1-yl)phenyl)-5-methylpyrimidine-2,4-diamine]
GI50 (UKE1 cells; [3]): 0.44 µM
GI50 (UKE1 cells; Table 3, read-out: GI50 (UKE1)): 0.44 µM

EC50 (MM1.S cells; Table 2): 3.12 µM
ΔTm at 4 µM (BRD4 [1]; Table 2): 6.9 °C
Compound: Cc1cnc(Nc2ccc(N3CCN(C)CC3)c(F)c2)cc1Nc1ccc(Cl)c(NS(=O)(=O)C(C)(C)C)c1
GI50 (UKE1 cells; [4]): 4.5 µM

Mouse microsome (Mouse microsome): 28%
IC50 (JAK2; Table 1, unit given as nm, read-out: IC50 (JAK2)): 0.00087 µM
IC50 (JAK2; Table 3, read-out: JAK2 (IC50)): 0.001 µM
IC50 (MM1.S cells; Table 1): 0.14 µM
GI50 (MM1.S cells): 0.14 µM
ΔTm at 4 µM (BRD4 [1]; Table 1): 9.2 °C
BRD4 DSF (ΔTm) (BRD4 [1]): 9.2 °C
IC50 (BRD4 [2]; [5]): 0.704 µM
IC50 (BRD4 [2]; Table 3, read-out: BRD4 (IC50)): 0.7 µM
Compound: Cc1cnc(Nc2ccc(C3CCN(C)CC3)c(F)c2)nc1Nc1cccc(CS(=O)(=O)C(C)(C)C)c1 [SR3-167, N^4-(3-((tert-Butylsulfonyl)methyl)phenyl)-N^2-(3-fluoro-4-(1-methylpiperidin-4-yl)phenyl)-5-methylpyrimidine-2,4-diamine]
GI50 (UKE1 cells; [3]): 0.21 µM
GI50 (UKE1 cells; Table 3, read-out: GI50 (UKE1)): 0.21 µM

BRD4 DSF (ΔTm) (BRD4 [1]): 2.9 °C
Compound: Cc1cnc(Nc2ccc(C3CCN(C)CC3)c(F)c2)cc1Nc1cccc(CS(=O)(=O)C(C)(C)C)c1 [SY3-036, N^4-(3-((tert-Butylsulfonyl)methyl)phenyl)-N^2-(3-fluoro-4-(1-methylpiperidin-4-yl)phenyl)-5-methylpyridine-2,4-diamine]

IC50 (JAK2; Table 3, read-out: JAK2 (IC50)): 0.0022 µM
IC50 (MM1.S cells; Table 1): 0.13 µM
GI50 (MM1.S cells): 0.13 µM
ΔTm at 4 µM (BRD4 [1]; Table 1): 6.9 °C
BRD4 DSF (ΔTm) (BRD4 [1]): 6.9 °C
Compound: Cc1cnc(Nc2ccc(C(=O)NC3CCN(C)CC3)c(F)c2)nc1Nc1cccc(CS(=O)(=O)C(C)(C)C)c1 [SR3-162, 4-((4-((3-((tert-Butylsulfonyl)methyl)phenyl)amino)-5-methylpyrimidin-2-yl)amino)-2-fluoro-N-(1-methylpiperidin-4-yl)benzamide]

GI50 (MM1.S cells): 0.7 µM
Compound: Cc1cnc(Nc2cc(F)c(C3CCN(C)CC3)c(F)c2)nc1Nc1ccc2c(c1)C(S(=O)(=O)C(C)(C)C)CC2 (stereo not shown) [SR5-157, N^4-(3-(tert-Butylsulfonyl)-2,3-dihydro-1H-inden-5-yl)-N^2-(3,5-difluoro-4-(1-methylpiperidin-4-yl)phenyl)-5-methylpyrimidine-2,4-diamine]
GI50 (UKE1 cells; Table 3, read-out: GI50 (UKE1)): 1.5 µM

Reference: patent US12187686B2, “BRD4-JAK2 inhibitors” (H. LEE MOFFITT CANCER CENTER AND RESEARCH INSTITUTE, INC., priority 2018, dated 2025)
